Results taken from patent US20220281848A1, “PYRAZOLE-SUBSTITUTED PYRROLIDINONES AS HERBICIDES” (FMC Corporation, priority 2019, published 2022).

Experiments:
Type in all cases: in vivo
[1] = tested on: velvetleaf (Abutilon theophrasti, ABUTH); assay: Test A pre-emergence, velvetleaf; conditions: after 13 d
Procedure, shortened: (§1)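 After sowing in pots and a single day of glasshouse cultivation, the soil was treated with an aqueous spray of the compound (acetone/water 50:50, 0.5% Tween 20) giving 15.625, 62.5 or 250 g/ha. Evaluation after 13 d used a scale where 0 meant no damage and 100 total damage.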

[2] = tested on: barnyardgrass (Echinochloa crus-galli, ECHCG); assay: Test A pre-emergence, barnyardgrass; conditions: after 13 d
Procedure, shortened: as §1

[3] = tested on: ivy-leaved morning glory (Ipomoea hederacea, IPOHE); assay: Test A pre-emergence, ivy-leaved morning glory; conditions: after 13 d
Procedure, shortened: as §1

[4] = tested on: corn (Zea mays, ZEAMX); assay: Test A post-emergence, corn; conditions: after 13 d
Procedure, shortened: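 Foliar application to 8-day-old seedlings at 15.625, 62.5 or 250 g/ha; phytotoxicity scored 0–100 after 13 d.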

[5] = tested on: plants; assay: Test D post-emergence, other plants of Tables D2 and D4; conditions: "Cereals" Postemergent, evaluated after 15 d
Procedure, shortened: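 Seeds treated with herbicide safener; sown in soil; glasshouse, 16 h light, 65% humidity. Sprayed day 1 (pre) or ~day 12 (post). Spray in 0.2% v/v adjuvant. Scored 0–100 damage: 20 DAA pre, 15 d post.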

CN1CC(c2cc(C(F)(F)F)n(C)n2)C(C(=O)Nc2cccc(F)n2)C1=O (racemic) [Compound 24]
damage to plant (100=total damage; 0=no damage) ABUTH ([1]; Pre-Emergence at 15.625 g/ha): 0
damage to plant (100=total damage; 0=no damage) ABUTH ([1]; Pre-Emergence at 62.5 g/ha): 0
damage to plant (100=total damage; 0=no damage) ABUTH ([1]; Pre-Emergence at 250 g/ha): 0
damage to plant (100=total damage; 0=no damage) ECHCG ([2]; Pre-Emergence at 15.625 g/ha): 90
damage to plant (100=total damage; 0=no damage) ECHCG ([2]; Pre-Emergence at 62.5 g/ha): 100
damage to plant (100=total damage; 0=no damage) ECHCG ([2]; Pre-Emergence at 250 g/ha): 100
damage to plant (100=total damage; 0=no damage) IPOHE ([3]; Pre-Emergence at 15.625 g/ha): 0
damage to plant (100=total damage; 0=no damage) IPOHE ([3]; Pre-Emergence at 62.5 g/ha): 0
damage to plant (100=total damage; 0=no damage) IPOHE ([3]; Pre-Emergence at 250 g/ha): 40
damage to plant (100=total damage; 0=no damage) ZEAMX ([4]; Post-Emergence at 15.625 g/ha): 0
damage to plant (100=total damage; 0=no damage) ZEAMX ([4]; Post-Emergence at 62.5 g/ha): 10
damage to plant (100=total damage; 0=no damage) ZEAMX ([4]; Post-Emergence at 250 g/ha): 40
ALOMY damage rating (100=total damage to plant; 0=no damage to plant) ([5]; Rates 130): 0
ALOMY damage rating (100=total damage to plant; 0=no damage to plant) ([5]; Rates 250): 0
ALOMY damage rating (100=total damage to plant; 0=no damage to plant) ([5]; Rates 500): 0
AVEFA damage rating (100=total damage to plant; 0=no damage to plant) ([5]; Rates 130): 0
AVEFA damage rating (100=total damage to plant; 0=no damage to plant) ([5]; Rates 250): 0
AVEFA damage rating (100=total damage to plant; 0=no damage to plant) ([5]; Rates 500): 0
BEAVA damage rating (100=total damage to plant; 0=no damage to plant) ([5]; Rates 130): 0
BEAVA damage rating (100=total damage to plant; 0=no damage to plant) ([5]; Rates 250): 0
BEAVA damage rating (100=total damage to plant; 0=no damage to plant) ([5]; Rates 500): 0
BROTE damage rating (100=total damage to plant; 0=no damage to plant) ([5]; Rates 130): 0
BROTE damage rating (100=total damage to plant; 0=no damage to plant) ([5]; Rates 250): 0
BROTE damage rating (100=total damage to plant; 0=no damage to plant) ([5]; Rates 500): 0
BRSNN damage rating (100=total damage to plant; 0=no damage to plant) ([5]; Rates 130): 0
BRSNN damage rating (100=total damage to plant; 0=no damage to plant) ([5]; Rates 250): 0
BRSNN damage rating (100=total damage to plant; 0=no damage to plant) ([5]; Rates 500): 0
CHEAL damage rating (100=total damage to plant; 0=no damage to plant) ([5]; Rates 130): 0
CHEAL damage rating (100=total damage to plant; 0=no damage to plant) ([5]; Rates 250): 10
CHEAL damage rating (100=total damage to plant; 0=no damage to plant) ([5]; Rates 500): 40
GALAP damage rating (100=total damage to plant; 0=no damage to plant) ([5]; Rates 130): 0
GALAP damage rating (100=total damage to plant; 0=no damage to plant) ([5]; Rates 250): 0
GALAP damage rating (100=total damage to plant; 0=no damage to plant) ([5]; Rates 500): 20
HORVW damage rating (100=total damage to plant; 0=no damage to plant) ([5]; Rates 130): 0
HORVW damage rating (100=total damage to plant; 0=no damage to plant) ([5]; Rates 250): 0
HORVW damage rating (100=total damage to plant; 0=no damage to plant) ([5]; Rates 500): 0
KCHSC damage rating (100=total damage to plant; 0=no damage to plant) ([5]; Rates 130): 0
KCHSC damage rating (100=total damage to plant; 0=no damage to plant) ([5]; Rates 250): 0
KCHSC damage rating (100=total damage to plant; 0=no damage to plant) ([5]; Rates 500): 0
LOLPE damage rating (100=total damage to plant; 0=no damage to plant) ([5]; Rates 130): 0
LOLPE damage rating (100=total damage to plant; 0=no damage to plant) ([5]; Rates 250): 0
LOLPE damage rating (100=total damage to plant; 0=no damage to plant) ([5]; Rates 500): 0
POAAN damage rating (100=total damage to plant; 0=no damage to plant) ([5]; Rates 130): 0
POAAN damage rating (100=total damage to plant; 0=no damage to plant) ([5]; Rates 250): 0
POAAN damage rating (100=total damage to plant; 0=no damage to plant) ([5]; Rates 500): 0
POLCO damage rating (100=total damage to plant; 0=no damage to plant) ([5]; Rates 130): 0
POLCO damage rating (100=total damage to plant; 0=no damage to plant) ([5]; Rates 250): 0
POLCO damage rating (100=total damage to plant; 0=no damage to plant) ([5]; Rates 500): 0
SINAR damage rating (100=total damage to plant; 0=no damage to plant) ([5]; Rates 130): 0
SINAR damage rating (100=total damage to plant; 0=no damage to plant) ([5]; Rates 250): 0
SINAR damage rating (100=total damage to plant; 0=no damage to plant) ([5]; Rates 500): 0
